Entries after “also recorded” stand apart in the source; their conditions may differ.
What was measured:
[1] = system: CFA-induced inflammatory pain in rats; test: Heat and mechanical sensitivity after intrathecal p38 inhibitor; format: in vivo, rat; details: for late phase of inflammation-induced heat hyperalgesia: 24 and 48 hours after CFA
Method: (§1) CFA-induced inflammatory pain is characterized by hyperalgesia (i.e., an increased sensitivity to a noxious stimulus) and allodynia (i.e., generation of pain by a normally innocuous stimulus). To examine the involvement of p38 activation in the DRG in inflammatory pain, 10 μl of a specific p38 inhibitor, SB 203580 (1 μg, Calbiochem), was administered into the intrathecal space (close to L4 DRG level) via an intrathecal PP10 catheter. Although p38 inhibitors have an anti-inflammatory action when delivered systematically, localized intrathecal drug administration should not affect inflammation in the paw. To obtain a sustained and stable drug infusion, an Alzet osmotic pump (seven day pump, 0.5 μl/hour) was filled with the p38-inhibitor SB 203580 (1 μg/μl) in saline, and the associated catheter of the pump was implanted intrathecally sixteen hours before CFA injection. Saline was used as vehicle control for the osmotic pump.
To test whether the p38 inhibitor affects basal pain sensitivity, heat and mechanical sensitivity were measured, as previously described (Ji et al., 2001, supra). Briefly, animals were habituated and basal pain sensitivity was tested before drug administration or surgery. Mechanical withdrawal threshold on the plantar surface of the hindpaw was measured with a set of von Frey hairs. […] Thermal paw withdrawal latency was measured using the Hargreaves radiant heat apparatus and averaged over three trials. […] To investigate whether the p38 inhibitor affects established inflammatory pain, SB203580 (1 μg) was intrathecally injected 48 hours after CFA injection. Pain behavior was measured 0.5, 3, and 24 hours after the inhibitor was injected.

VR1 protein = VR1 protein in DRG after CFA inflammation (Western blot, immunohistochemistry); format: in vivo, rat; details: for induction of VR1 after inflammation: continuous intrathecal infusion via osmotic pump, two days
Method: L4 and L5 DRGs and L4-L5 spinal cord segments were dissected. DRG and transverse spinal cord sections (20 μm) were cut and processed for immunohistochemistry using the previously described ABC method (Ji et al., Nat. Neurosci. 2:1114-1119, 1999), with polyclonal anti-p38 and phospho-p38 (1:300, New England BioLabs) and polyclonal anti-VR1 antibodies (1:5000, Kindly provided by Glaxso Welcome and Dr. David Julius). For colocalization studies, immunofluorescence was performed to analyze the double staining between antibodies reactive with phosphop38 (anti-rabbit, 1:300) and VR1 (anti-guinea pig, 1:3000, Neuromics) or P2X3 (anti-guinea pig, 1:3000, Neuromics) or NeuN (anti-mouse, 1:3000, Chemicon). This double immunofluorescence was performed as previously described (Ji et al., 2001, supra). Briefly, DRG and spinal sections were incubated with a mixture of two primary antibodies overnight at 4° C. and then incubated with a mixture of FITC- and CY3-congugated secondary antibodies (1:300, Jackson immunolab) for two hours at room temperature. A Tyramide Signal Amplification (TSA, NEN) kit was used to perform double staining with two polyclonal rabbit antibodies (phospho p38 and TrkA) as previously reported (Amaya et al., Mol. Cell Neurosci 15:331-342, 2000). The images of immunostained DRG sections were captured with a CCD camera. The intensity of immunostaining was measured with computer-assisted software (IP lab), and the number of immunoreactive neuronal profiles was counted in a blinded fashion. […] Instead, the results provide a way to evaluate differences in staining levels between control and treated animals. To prevent variations due to experimental conditions, the control and treated DRG sections were mounted on the same slides and processed under the same conditions. […]
To determine whether expression of VR1 protein in DRG neurons was induced by peripheral inflammation, the following Western blot analysis was used. […] The density of specific bands was measured and normalized with internal control bands from the loading control. […]

[2] = system: CFA-induced inflammatory pain in rats; test: Heat and mechanical sensitivity after intrathecal p38 inhibitor; format: in vivo, rat; details: intrathecal 1 μg 24 hours after CFA treatment; tested 0.5, 3 and 24 hours
CFA-injected paws = test: CFA-induced paw swelling (paw thickness); format: in vivo, rat; details: intrathecal infusion by osmotic pump started before CFA
Method: as §1

p-p38 and VR1 = p-p38 and VR1 in DRG after intrathecal NGF; format: in vivo, rat; details: for NGF-induced VR1 increase: 1 μg co-administered with NGF twice a day for three days
Method: L4 and L5 DRGs and L4-L5 spinal cord segments were dissected. DRG and transverse spinal cord sections (20 μm) were cut and processed for immunohistochemistry using the previously described ABC method (Ji et al., Nat. Neurosci. 2:1114-1119, 1999), with polyclonal anti-p38 and phospho-p38 (1:300, New England BioLabs) and polyclonal anti-VR1 antibodies (1:5000, Kindly provided by Glaxso Welcome and Dr. David Julius). For colocalization studies, immunofluorescence was performed to analyze the double staining between antibodies reactive with phosphop38 (anti-rabbit, 1:300) and VR1 (anti-guinea pig, 1:3000, Neuromics) or P2X3 (anti-guinea pig, 1:3000, Neuromics) or NeuN (anti-mouse, 1:3000, Chemicon). This double immunofluorescence was performed as previously described (Ji et al., 2001, supra). Briefly, DRG and spinal sections were incubated with a mixture of two primary antibodies overnight at 4° C. and then incubated with a mixture of FITC- and CY3-congugated secondary antibodies (1:300, Jackson immunolab) for two hours at room temperature. A Tyramide Signal Amplification (TSA, NEN) kit was used to perform double staining with two polyclonal rabbit antibodies (phospho p38 and TrkA) as previously reported (Amaya et al., Mol. Cell Neurosci 15:331-342, 2000). The images of immunostained DRG sections were captured with a CCD camera. The intensity of immunostaining was measured with computer-assisted software (IP lab), and the number of immunoreactive neuronal profiles was counted in a blinded fashion. […] Instead, the results provide a way to evaluate differences in staining levels between control and treated animals. To prevent variations due to experimental conditions, the control and treated DRG sections were mounted on the same slides and processed under the same conditions. […] As previously reported (Ji et al., 1999, supra), every fifth section was picked from a series of consecutive DRG sections (20 μm), and four sections were included for each DRG. The percentage of immnunoreactive neuronal profiles=(number of positive stained neuronal profiles/number of total neuronal profiles)×100.
After CFA-induced inflammation, NGF is produced in the inflamed paw tissue and is retrogradely transported to the cell body of DRG neurons. NGF is critical for gene expression in DRG neurons and plays a major role in inflammatory pain (Lindsay et al., Nature 337: 362-364, 1989; and Woolf et al., Neuroscience 62:327-331, 1994). […] To determine whether NGF is required for the inflammation-induced activation of p38 and upregulation of VR1, NGF antiserum (i.p., 5 μl/g body weight, 84 mg/ml) was injected to neutralize endogenous NGF. […] Intrathecal injection of NGF (2 μg in 10 μl, twice a day for three days, Boeringer) increased both p-p38 levels and VR1 levels in DRG neurons. […]

Cox-2 mRNA [3] = test: Cox-2 mRNA in isolated spinal cord slice in vitro; format: cell-based, rat; details: 200 ng/ml; in vitro spinal cord slice
Method: Two mechanisms may contribute to central Cox-2 induction in response to peripheral inflammation: 1) sensory inflow from nerve fibers innervating the inflamed hindpaw or 2) circulating pro-inflammatory cytokines. To determine whether primary sensory neuron activity increases central Cox-2, an isolated adult rat spinal cord slice preparation with an attached dorsal root was analyzed (FIG. 5A). To prepare this spinal cord slice, the lumbar spinal cord from an adult rat under urethane anesthesia was removed and immersed in cold Kreb's solution. A 700-μm-thick transverse slice with attached L4 dorsal root (15-20 mm) was prepared and perfused with Kreb's solution saturated with 95% O2 and 5% CO2 at 36-37° C. (Baba et al., J Neurosci 19:859, 1999). The L4 dorsal root was electrically stimulated for 30 minutes using a suction electrode at 20 μA (0.05 ms, 50 Hz) for Aβ-fibers, 100 μA (0.05 ms, 50 Hz) for […] 1000 μA (0.5 ms, 50 Hz) for C-fibers. The slices were perfused with Kreb's solution for two hours before electrical stimulation, and for three hours after stimulation.

Cox-2 mRNA [4] = test: Cox-2 mRNA in lumbar spinal cord after intraplantar CFA (RNase protection assay); format: in vivo, rat
Method: The extent of Cox-2 induction in the central nervous system following unilateral hindpaw inflammation evoked by complete Freund's adjuvant (CFA) was investigated. CFA (100 μl, Sigma) was injected into the left rat hindpaw of rats anaesthetized with 2% halothane. The level of Cox-2 mRNA was measured using RNase protection assays which were performed on total RNA extracts from spinal cord samples using the RPA III kit (Ambion). […] At least two assays were used for each observation, and the fold change in Cox-2 mRNA levels was determined with respect to a β-actin loading control.
To further support the role of central IL-1β in induction of Cox-2, the effect of inhibiting IL-1β activity was determined.

p38 and ERK = test: MAP kinase phosphorylation in primary DRG neuron cultures; format: cell-based, rat; details: culture
Method: To investigate the intracellular signaling pathway that leads to the increase in Cox-2 mRNA in the DRG neurons following treatment with IL-1β, the activation of the NFκ-B transcription factor and members of the MAP kinase family in primary DRG neurons was studied. […] Phosphorylated p38 and ERK were visualized by standard Western blot analysis and immunohistochemistry 30 minutes after administration of 10 ng/ml IL-1β to the culture medium (FIG. 12).
After CFA-induced inflammation, NGF is produced in the inflamed paw tissue and is retrogradely transported to the cell body of DRG neurons. NGF is critical for gene expression in DRG neurons and plays a major role in inflammatory pain (Lindsay et al., Nature 337: 362-364, 1989; and Woolf et al., Neuroscience 62:327-331, 1994). […] To determine whether NGF is required for the inflammation-induced activation of p38 and upregulation of VR1, NGF antiserum (i.p., 5 μl/g body weight, 84 mg/ml) was injected to neutralize endogenous NGF. […] Intrathecal injection of NGF (2 μg in 10 μl, twice a day for three days, Boeringer) increased both p-p38 levels and VR1 levels in DRG neurons. […] To test whether NGF acts via p38 to upregulate VR1, the p38 inhibitor SB203580 (1 μg) was co-administrated with NGF (twice a day for three days).

[5] = system: CFA inflamed hindpaw of rats; test: Mechanical (von Frey) and thermal (radiant heat) sensitivity after Cox-2 or caspase-1 inhibitor
Method: Thermal sensitivity was assessed by applying a beam of radiant heat and recording the paw withdrawal latency (Decosterd et al., supra).

PGE2 = PGE2 levels in cerebrospinal fluid after CFA inflammation (enzyme-immunoassay); format: in vivo, rat; details: for decrease of PGE2 levels in the cerebrospinal fluid: intrathecal
[6] = system: CFA-induced inflammatory pain in rats; details: non-inflamed animals; Ji et al., 1999; cited from earlier work
[7] = intrathecal infusion before CFA
[8] = intrathecal infusion before CFA, listed as SB 203580
[9] = intrathecal 2 μg twice a day for three days
[10] = intrathecal 30 μg, 48 hours after CFA-induced inflammation

C[S+]([O-])c1ccc(-c2nc(-c3ccncc3)c(-c3ccc(F)cc3)[nH]2)cc1 (stereo not shown) [SB203580]
established inflammatory pain ([1]; 1 μg intrathecal after CFA, 0.5 hours post-injection): did not affect | heat hyperalgesia ([1]; 1 μg intrathecal after CFA, 24 hours post-injection): completely reversed | heat hyperalgesia ([1]; 1 μg intrathecal after CFA, three hours post-injection): started to decrease | inflammatory heat hyperalgesia ([1]; intrathecal bolus 1 μg twice a day for two days, first 30 minutes prior to CFA): decreased | mechanical allodynia [1, 7]: did not significantly affect | late phase of inflammation-induced heat hyperalgesia [1, 7]: alleviated | late phase of inflammation-induced heat hyperalgesia [1, 8]: reduced | mechanical allodynia [1, 8]: did not affect | heat and mechanical sensitivity in non-inflamed rats ([1]; non-inflamed rats, intrathecal): Neither heat nor mechanical sensitivity in non-inflamed rats was affected | early phase of inflammatory pain ([1]; six hour time point, intrathecal infusion before CFA): did not change | induction of VR1 after inflammation (VR1 protein): inhibited; also recorded: blocked | induction of VR1 after inflammation (VR1 protein; listed as SB 203580): decreased | CFA-induced upregulation of VR1 protein (Western blot) (VR1 protein; intrathecal 1 μg twice a day for two days, at two days): blocked | inflammatory heat hyperalgesia [2]: delayed inhibition | CFA-induced swelling, based on paw thickness (CFA-injected paws): does not change | CFA-induced swelling, based on paw thickness (CFA-injected paws; listed as SB 203085): did not reduce | NGF-induced VR1 increase (p-p38 and VR1): significantly suppressed | NGF-induced VR1 increase (p-p38 and VR1; listed as 203580): blocked

IL-1ra: recombinant IL-1β receptor antagonist (IL-1ra)
activity-evoked Cox-2 mRNA induction (Cox-2 mRNA [3]): did not affect | reduction of Cox-2 mRNA levels (Cox-2 mRNA [4]; intrathecal 6 μg 30 minutes prior to CFA injection, six hours post-inflammation): 75%

NGF: nerve growth factor, a known pain mediator, injected intrathecally
p38 activation in adult primary DRG neurons grown in culture (p38 and ERK): induced | VR1 levels in DRG neurons (p-p38 and VR1; [9]): increases | p-p38 levels in DRG neurons (p-p38 and VR1; [9]): increases

CS(=O)(=O)Nc1ccc([N+](=O)[O-])cc1OC1CCCCC1 [NS398]
reduction of mechanical hyperalgesia [5, 10]: 4.2 fold | thermal hyperalgesia [5, 10]: significantly reduced | mechanical or thermal pain sensitivity in naive rats ([5]; naive rats): did not alter

acetyl-Tyr-Val-Ala-Asp-CHO [YVAD]
normalizing mechanical sensitivity ([5]; intrathecal 1 nmol, CFA inflammation): 12 fold | thermal withdrawal latency of the CFA inflamed hindpaw ([5]; intrathecal 1 nmol, compared with vehicle): did not significantly affect | mechanical threshold of the CFA inflamed hindpaw ([5]; intrathecal 1 nmol, compared with vehicle, p<0.05): increased | block of the induction of spinal Cox-2 mRNA (Cox-2 mRNA [4]; 30 minute intrathecal pretreatment, 1 nmole (0.5 μg), six hours after peripheral inflammation): 65% | reduction of the levels of central PGE2 (PGE2; intrathecal pretreatment 1 nmole, 12 and 24 hours post-inflammation): 50% | decrease of PGE2 levels in the cerebrospinal fluid (PGE2; 12 hours post inflammation): 50% | decrease of PGE2 levels in the cerebrospinal fluid (PGE2; 24 hours post-inflammation): 70%

COc1cccc(-c2cc(=O)c3ccccc3o2)c1N [PD98059]
basal pain sensitivity [6]: no significant change

Reference: patent publication US20080026003A1, “Methods for inhibiting pain” (The General Hospital Corporation, priority 2000, published 2008)
